Test in all cases: Post-emergence efficacy, Method A
Holding throughout (type): in vivo

In assay [1] the test system is Ipomoea hederacea (IPOHE). The note with it: 100=total damage to plant, 0=no damage, evaluated after 7 and 14 days, read-out: Control of weed species after post-emergence application, IPOHE.
Assay [2] relates to Euphorbia heterophylla (EPHHL). To be noted: 100=total damage to plant, 0=no damage, evaluated after 7 and 14 days, read-out: Control of weed species after post-emergence application, EPHHL.
Assay [3] concerns Chenopodium album (CHEAL). To be noted: 100=total damage to plant, 0=no damage, evaluated after 7 and 14 days, read-out: Control of weed species after post-emergence application, CHEAL.
Assay [4] concerns Amaranthus palmeri (AMAPA). To be noted: 100=total damage to plant, 0=no damage, evaluated after 7 and 14 days, read-out: Control of weed species after post-emergence application, AMAPA.
The subject of another assay is Lolium perenne (LOLPE). To be noted: 100=total damage to plant, 0=no damage, evaluated after 7 and 14 days, read-out: Control of weed species after post-emergence application, LOLPE.
The test system of assay [5] is Digitaria sanguinalis (DIGSA). The note with it: 100=total damage to plant, 0=no damage, evaluated after 7 and 14 days, read-out: Control of weed species after post-emergence application, DIGSA.
A further assay deals with Eleusine indica (ELEIN). The note with it: 100=total damage to plant, 0=no damage, evaluated after 7 and 14 days, read-out: Control of weed species after post-emergence application, ELEIN.
In assay [6] the test system is Echinochloa crus-galli (ECHCG). The note with it: 100=total damage to plant, 0=no damage, evaluated after 7 and 14 days, read-out: Control of weed species after post-emergence application, ECHCG.
The test system of the next assay is Setaria faberi (SETFA). To be noted: 100=total damage to plant, 0=no damage, evaluated after 7 and 14 days, read-out: Control of weed species after post-emergence application, SETFA.

Turning to `O=C(O)C[n+]1ccc(-c2ncns2)cc1` [Compound A6], the pest or weed control at 500 g/ha in assay [1] was determined as 80%; in assay [2], 100%; in assay [3], 100%; in assay [4] it was 100%; in the assay with Lolium perenne (LOLPE) it was 30%; in assay [5], 70%. Further, the values for the pest or weed control at 500 g/ha (in the assay with Eleusine indica (ELEIN); in assay [6]; in the assay with Setaria faberi (SETFA)) were 90%, 90% and 80%, respectively.
For `O=C(O)CC[n+]1ccc(-c2ncns2)cc1` [Compound A7, 3-[4-(1,2,4-thiadiazol-5-yl)pyridin-1-ium-1-yl]propanoic acid chloride], the pest or weed control at 500 g/ha in assay [1] amounted to 30%; in [2] it was 80%; in [3], 90%; in assay [4], 100%; in the assay with Lolium perenne (LOLPE), 30%; in assay [5], 90%. The figures for the pest or weed control at 500 g/ha (in the assay with Eleusine indica (ELEIN); in assay [6]; in the assay with Setaria faberi (SETFA)) were 70%, 50% and 70%, respectively.
On to `O=S(=O)([O-])CCC[n+]1ccc(-c2cnsn2)cc1` [Compound A12], for which the pest or weed control at 1000 g/ha was 0% in [1] (1000 g/Ha); 20% in [2] (1000 g/Ha); 0% in assay [3] (1000 g/Ha); 0% in assay [4] (1000 g/Ha); 10% in the assay with Lolium perenne (LOLPE) (1000 g/Ha); 20% in assay [5] (1000 g/Ha). Moreover, the pest or weed control at 1000 g/ha was found to be 20% with Eleusine indica (ELEIN) (1000 g/Ha), 0% in assay [6] (1000 g/Ha) and 0% in the assay with Setaria faberi (SETFA) (1000 g/Ha).
On to `O=C(O)C[n+]1ccc(-c2ncno2)cc1` [Compound A13], for which the pest or weed control at 500 g/ha turned out to be 30% in assay [1]; 70% in assay [2]; 50% in assay [3]; 100% in assay [4]; 10% in the assay with Lolium perenne (LOLPE); 60% in assay [5]. Moreover, the pest or weed control at 500 g/ha with Eleusine indica (ELEIN) was 50%; in assay [6] it was 50%; in the assay with Setaria faberi (SETFA) it was 70%.
In the case of `O=C(O)CC[n+]1ccc(-c2ncno2)cc1` [Compound A14], the pest or weed control at 500 g/ha amounted to 20% in [1]; 30% in assay [2]; 70% in assay [3]; 100% in assay [4]; 10% with Lolium perenne (LOLPE); 50% in [5]. Besides, the pest or weed control at 500 g/ha in the assay on Eleusine indica (ELEIN) was 40%; in assay [6], 50%; in the assay on Setaria faberi (SETFA) it was 60%.
`COC(=O)C[n+]1ccc(-c2nnco2)cc1` [Compound A16]: the pest or weed control at 500 g/ha in assay [1] was 20%; in assay [2] it was 20%; in assay [3], 0%; in [4], 0%; with Lolium perenne (LOLPE) it was 0%; in assay [5], 40%. For the same compound, the pest or weed control at 500 g/ha with Eleusine indica (ELEIN) came to 10%; in assay [6] it was 20%; in the assay with Setaria faberi (SETFA), 30%.
As for `O=S(=O)([O-])CCC[n+]1ccc(-c2nnco2)cc1` [Compound A17], the pest or weed control at 500 g/ha is 20% in assay [1]; 50% in assay [2]; 70% in assay [3]; 70% in assay [4]; 0% in the assay on Lolium perenne (LOLPE); 40% in assay [5]. Moreover, the pest or weed control at 500 g/ha with Eleusine indica (ELEIN) was 10%; in assay [6], 30%; in the assay with Setaria faberi (SETFA), 40%.
Take `O=S(=O)([O-])CCC[n+]1ccc(-c2cnon2)cc1` [Compound A18]: the pest or weed control at 500 g/ha in assay [1] was 20%; in [2], 50%; in [3] it was 50%; in assay [4] it was 100%; in the assay with Lolium perenne (LOLPE) it was 10%; in assay [5], 30%. The results for the pest or weed control at 500 g/ha (with Eleusine indica (ELEIN); in [6]; in the assay on Setaria faberi (SETFA)) were 30%, 50% and 40%, respectively.
As for `O=S(=O)([O-])CC[n+]1ccc(-c2cnns2)cc1` [Compound A19], the pest or weed control at 500 g/ha turned out to be 50% in [1]; 50% in assay [2]; 50% in [3]; 100% in assay [4]; 30% in the assay on Lolium perenne (LOLPE); 30% in assay [5]. For the same compound, the pest or weed control at 500 g/ha is 30% in the assay on Eleusine indica (ELEIN), 40% in [6] and 40% with Setaria faberi (SETFA).
On to `O=C(O)C[n+]1ccc(-c2nccs2)cc1` [Compound A24], for which the pest or weed control at 500 g/ha in [1] turned out to be 20%; in [2] it was 40%; in [3], 40%; in assay [4], 0%; with Lolium perenne (LOLPE) it was 0%; in [5], 10%. Also, the pest or weed control at 500 g/ha (in the assay with Eleusine indica (ELEIN); in [6]; in the assay on Setaria faberi (SETFA)) was 0% throughout.
For `O=C(O)CC[n+]1ccc(-c2nccs2)cc1` [Compound A25], the pest or weed control at 500 g/ha in assay [1] is 10%; in assay [2] it was 0%; in assay [3] it was 10%; in assay [4] it was 0%; with Lolium perenne (LOLPE) it was 0%; in assay [5] it was 10%. Moreover, the figures for the pest or weed control at 500 g/ha (with Eleusine indica (ELEIN); in assay [6]; in the assay on Setaria faberi (SETFA)) were 10%, 0% and 0%, respectively.
On to `Cn1nnnc1-c1cc[n+](CCS(=O)(=O)[O-])cc1` [Compound A26], for which the pest or weed control at 500 g/ha in [1] amounted to 10%; in [2], 20%; in assay [3] it was 10%; in assay [4], 0%; with Lolium perenne (LOLPE) it was 10%; in [5] it was 20%. Also, the pest or weed control at 500 g/ha (in the assay on Eleusine indica (ELEIN); in assay [6]; with Setaria faberi (SETFA)) was 10% in each case.
In the case of `Cn1nnc(-c2cc[n+](CCS(=O)(=O)[O-])cc2)n1` [Compound A27], the pest or weed control at 500 g/ha worked out at 10% in assay [1]; 20% in [2]; 10% in [3]; 10% in [4]; 0% in the assay on Lolium perenne (LOLPE); 0% in assay [5]. For the same compound, the pest or weed control at 500 g/ha (in the assay with Eleusine indica (ELEIN); in assay [6]; with Setaria faberi (SETFA)) was 0% throughout.
Take `Cn1nnnc1-c1cc[n+](CC(=O)O)cc1` [Compound A33]: the pest or weed control at 500 g/ha in assay [1] came out at 0%; in assay [2], 40%; in assay [3] it was 40%; in assay [4], 90%; in the assay with Lolium perenne (LOLPE), 0%; in [5], 20%. Also, the figures for the pest or weed control at 500 g/ha (with Eleusine indica (ELEIN); in [6]; in the assay on Setaria faberi (SETFA)) were 20%, 0% and 0%, respectively.

The values above are taken from patent publication US20220104493A1, “HERBICIDAL COMPOUNDS” (SYNGENTA CROP PROTECTION AG, priority 2019, published 2022).
